Measured values as given in patent US20080051429A1, “USE OF 4-AMINO-PIPERIDINES FOR TREATING SLEEP DISORDERS” (priority 2006, published 2008).

Tests used:
Assay in all cases: R-SAT broad profiling
Type in all cases: cell-based
5-HT6 = target: T1, 5-HT6 (Homo sapiens, UniProt P50406); conditions: read-out: pEC50/pIC50 (converted)
T1 construct: expressed in transfected cells
Method: (§1) The functional receptor assay, Receptor Selection and Amplification Technology (R-SAT), was used (with minor modifications from that previously described U.S. Pat. No. 5,707,798) to screen compounds for efficacy at the 5-HT2A receptor. Briefly, NIH3T3 cells were grown in 96 well tissue culture plates to 70-80% confluence. Cells were transfected for 12-16 hours with plasmid DNAs using superfect (Qiagen Inc.) as per manufacture's protocols. R-SAT's were generally performed with 50 ng/well of receptor and 20 ng/well of Beta-galactosidase plasmid DNA. All receptor and G-protein constructs used were in the pSI mammalian expression vector (Promega Inc) as described in U.S. Pat. No. 5,707,798. The 5HT2A receptor gene was amplified by nested PCR from brain cDNA using the oligodeoxynucleotides based on the published sequence (see Saltzman et. al. Biochem. Biophys. Res. Comm. 181:1469-78 (1991)). Large-scale transfections, cells were transfected for 12-16 hours, then trypsinized and frozen in DMSO. Frozen cells were later thawed, plated at 10,000-40,000 cells per well of a 96 well plate that contained drug. With both methods, cells were then grown in a humidified atmosphere with 5% ambient CO2 for five days. Media was then removed from the plates and marker gene activity was measured by the addition of the beta-galactosidase substrate ONPG (in PBS with 5% NP-40). The resulting colorimetric reaction was measured in a spectrophotometric plate reader (Titertek Inc.)at […]. All data were analyzed using the computer program XLFit (IDBSm). Efficacy is the percent maximal repression compared to repression by a control compound (ritanserin in the case of 5HT2A). pIC50 is the negative of the log(IC50), where IC50 is the calculated concentration in Molar that produces 50% maximal repression.
(§2) The R-SAT assay (described above in example 136) was used to investigate the selectivity of 2-(4-Methoxyphenyl)-N-(4-methylbenzyl)-N-(1-methylpiperidin-4-yl)acetamide hydrochloride.

D1 = target: T2, D1 (Homo sapiens, UniProt P21728); conditions: read-out: pEC50/pIC50 (converted)
T2 construct: expressed in transfected cells; host or cells: NIH3T3
T2 sequence (P21728 whole entry): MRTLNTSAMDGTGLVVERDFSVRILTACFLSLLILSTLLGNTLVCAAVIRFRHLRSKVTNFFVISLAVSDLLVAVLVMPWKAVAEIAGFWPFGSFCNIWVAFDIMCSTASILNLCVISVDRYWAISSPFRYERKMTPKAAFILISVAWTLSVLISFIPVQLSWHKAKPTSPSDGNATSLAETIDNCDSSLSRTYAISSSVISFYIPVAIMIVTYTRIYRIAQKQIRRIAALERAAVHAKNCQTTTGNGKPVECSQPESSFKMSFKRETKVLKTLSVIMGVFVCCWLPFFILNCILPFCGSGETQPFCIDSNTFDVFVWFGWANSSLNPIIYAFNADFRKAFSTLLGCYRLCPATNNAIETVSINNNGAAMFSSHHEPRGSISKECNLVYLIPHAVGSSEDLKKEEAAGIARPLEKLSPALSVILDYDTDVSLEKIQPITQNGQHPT
Method: as §1, §2

D5 = target: T3, D5 (Homo sapiens, UniProt P21918); conditions: read-out: pEC50/pIC50 (converted)
T3 construct: expressed in transfected cells; host or cells: NIH3T3
T3 sequence (P21918 whole entry): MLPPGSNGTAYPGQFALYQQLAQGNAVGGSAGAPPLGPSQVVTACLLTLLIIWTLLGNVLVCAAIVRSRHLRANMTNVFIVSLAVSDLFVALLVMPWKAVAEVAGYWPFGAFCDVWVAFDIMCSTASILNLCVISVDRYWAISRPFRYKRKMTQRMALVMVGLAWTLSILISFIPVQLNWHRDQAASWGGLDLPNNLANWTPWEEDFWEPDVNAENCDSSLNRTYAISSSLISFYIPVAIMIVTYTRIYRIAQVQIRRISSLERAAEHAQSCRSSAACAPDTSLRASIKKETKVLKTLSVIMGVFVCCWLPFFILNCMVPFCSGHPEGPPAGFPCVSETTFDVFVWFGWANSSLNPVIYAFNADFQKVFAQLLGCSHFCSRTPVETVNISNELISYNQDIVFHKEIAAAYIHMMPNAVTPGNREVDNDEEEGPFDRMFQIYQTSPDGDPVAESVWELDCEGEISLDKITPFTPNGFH
Method: as §1, §2

Histamine 1 = target: T4, Histamine 1 (Homo sapiens, UniProt P35367); conditions: read-out: pEC50/pIC50 (converted)
T4 construct: expressed in transfected cells; host or cells: NIH3T3
T4 sequence (P35367 whole entry): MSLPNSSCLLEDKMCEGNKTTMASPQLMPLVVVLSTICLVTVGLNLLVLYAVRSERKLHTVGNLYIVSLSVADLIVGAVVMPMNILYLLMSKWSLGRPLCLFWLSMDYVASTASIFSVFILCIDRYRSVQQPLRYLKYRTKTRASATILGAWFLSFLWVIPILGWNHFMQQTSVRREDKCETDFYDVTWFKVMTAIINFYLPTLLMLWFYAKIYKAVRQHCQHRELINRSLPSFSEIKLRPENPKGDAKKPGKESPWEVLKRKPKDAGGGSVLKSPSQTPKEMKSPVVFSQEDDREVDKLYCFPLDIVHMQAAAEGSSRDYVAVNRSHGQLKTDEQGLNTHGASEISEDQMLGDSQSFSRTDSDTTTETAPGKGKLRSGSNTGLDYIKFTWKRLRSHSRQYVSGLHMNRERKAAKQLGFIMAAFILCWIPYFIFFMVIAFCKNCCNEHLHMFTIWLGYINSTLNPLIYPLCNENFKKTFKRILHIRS
Method: as §1, §2

Histamine 2 = target: T5, Histamine 2 (Homo sapiens, UniProt P25021); conditions: read-out: pEC50/pIC50 (converted)
T5 construct: expressed in transfected cells; host or cells: NIH3T3
T5 sequence (P25021 whole entry): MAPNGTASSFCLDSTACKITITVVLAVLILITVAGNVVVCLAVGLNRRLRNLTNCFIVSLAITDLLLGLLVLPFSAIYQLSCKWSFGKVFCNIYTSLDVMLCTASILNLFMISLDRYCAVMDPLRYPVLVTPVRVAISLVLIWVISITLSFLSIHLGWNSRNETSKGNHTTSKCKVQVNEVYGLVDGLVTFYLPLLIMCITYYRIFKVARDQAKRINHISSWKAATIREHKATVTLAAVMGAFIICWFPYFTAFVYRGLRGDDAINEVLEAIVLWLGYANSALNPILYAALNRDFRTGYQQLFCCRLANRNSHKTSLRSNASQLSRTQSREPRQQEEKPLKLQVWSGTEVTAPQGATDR
Method: as §1, §2

NK-1 = target: T6, NK-1 (Homo sapiens, UniProt P25103); conditions: agonist; read-out: pEC50/pIC50 (converted)
T6 construct: expressed in transfected cells; host or cells: NIH3T3
T6 sequence (P25103 whole entry): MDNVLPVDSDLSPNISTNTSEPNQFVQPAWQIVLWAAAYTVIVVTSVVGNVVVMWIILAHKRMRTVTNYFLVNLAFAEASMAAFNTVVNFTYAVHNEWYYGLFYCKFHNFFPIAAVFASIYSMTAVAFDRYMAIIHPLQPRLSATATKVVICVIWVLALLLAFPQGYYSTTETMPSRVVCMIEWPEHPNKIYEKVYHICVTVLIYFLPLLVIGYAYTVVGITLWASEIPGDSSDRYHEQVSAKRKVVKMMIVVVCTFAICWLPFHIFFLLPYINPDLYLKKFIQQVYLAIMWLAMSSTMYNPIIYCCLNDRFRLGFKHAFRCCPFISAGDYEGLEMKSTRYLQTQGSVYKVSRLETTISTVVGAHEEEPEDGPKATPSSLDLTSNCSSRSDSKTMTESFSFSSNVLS
Method: as §1, §2

alpha 2C = target: T7, alpha 2C (Homo sapiens, UniProt P18825); conditions: read-out: pEC50/pIC50 (converted)
T7 construct: expressed in transfected cells; host or cells: NIH3T3
T7 sequence (P18825 1-462): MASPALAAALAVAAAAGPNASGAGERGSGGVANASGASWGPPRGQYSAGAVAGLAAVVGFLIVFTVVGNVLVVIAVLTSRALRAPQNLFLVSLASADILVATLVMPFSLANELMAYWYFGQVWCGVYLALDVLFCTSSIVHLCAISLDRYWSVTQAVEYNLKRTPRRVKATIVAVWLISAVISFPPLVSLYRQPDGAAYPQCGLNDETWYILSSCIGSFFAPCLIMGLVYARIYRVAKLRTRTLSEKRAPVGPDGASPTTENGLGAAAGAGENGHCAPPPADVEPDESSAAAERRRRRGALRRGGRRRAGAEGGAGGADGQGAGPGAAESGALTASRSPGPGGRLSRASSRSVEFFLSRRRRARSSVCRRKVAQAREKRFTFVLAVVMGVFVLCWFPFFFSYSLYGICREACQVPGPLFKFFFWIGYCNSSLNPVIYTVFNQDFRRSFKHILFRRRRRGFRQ
Method: as §1, §2

m2 = target: T8, m2 (Homo sapiens, UniProt P08172); conditions: read-out: pEC50/pIC50 (converted)
T8 construct: expressed in transfected cells; host or cells: NIH3T3
T8 sequence (P08172 1-466): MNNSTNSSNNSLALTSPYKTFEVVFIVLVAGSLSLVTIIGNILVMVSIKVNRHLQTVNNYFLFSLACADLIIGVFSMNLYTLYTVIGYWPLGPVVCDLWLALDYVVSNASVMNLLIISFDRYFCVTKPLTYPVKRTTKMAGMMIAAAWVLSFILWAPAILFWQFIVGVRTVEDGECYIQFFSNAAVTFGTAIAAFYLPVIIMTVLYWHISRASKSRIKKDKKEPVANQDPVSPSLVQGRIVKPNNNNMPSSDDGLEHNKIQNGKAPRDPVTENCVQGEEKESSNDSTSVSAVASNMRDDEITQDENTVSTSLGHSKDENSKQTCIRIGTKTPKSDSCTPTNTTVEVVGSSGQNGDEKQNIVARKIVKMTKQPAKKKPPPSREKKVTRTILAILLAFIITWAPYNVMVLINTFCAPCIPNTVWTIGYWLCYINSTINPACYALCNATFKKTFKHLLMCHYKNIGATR
Method: as §1, §2

m3 = target: T9, m3 (Homo sapiens, UniProt P20309); conditions: read-out: pEC50/pIC50 (converted)
T9 construct: expressed in transfected cells; host or cells: NIH3T3
T9 sequence (P20309 whole entry): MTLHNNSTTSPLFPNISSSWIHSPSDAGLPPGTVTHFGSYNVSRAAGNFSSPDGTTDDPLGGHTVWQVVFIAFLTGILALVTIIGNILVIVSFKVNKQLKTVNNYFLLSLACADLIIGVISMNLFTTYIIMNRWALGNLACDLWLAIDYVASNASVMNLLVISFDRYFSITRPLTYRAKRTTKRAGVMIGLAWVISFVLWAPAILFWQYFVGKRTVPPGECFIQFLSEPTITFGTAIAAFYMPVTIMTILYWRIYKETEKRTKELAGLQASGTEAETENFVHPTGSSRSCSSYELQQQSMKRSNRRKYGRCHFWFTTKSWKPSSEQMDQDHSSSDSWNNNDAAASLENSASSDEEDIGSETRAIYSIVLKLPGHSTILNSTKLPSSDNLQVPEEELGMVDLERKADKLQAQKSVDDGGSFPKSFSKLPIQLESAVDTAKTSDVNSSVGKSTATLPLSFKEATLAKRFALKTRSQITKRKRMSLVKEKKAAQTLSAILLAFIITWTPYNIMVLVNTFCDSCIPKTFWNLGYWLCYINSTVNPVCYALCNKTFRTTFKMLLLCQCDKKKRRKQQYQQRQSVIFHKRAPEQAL
Method: as §1, §2

m5 = target: T10, m5 (Homo sapiens, UniProt P08912); conditions: read-out: pEC50/pIC50 (converted)
T10 construct: expressed in transfected cells; host or cells: NIH3T3
T10 sequence (P08912 1-532): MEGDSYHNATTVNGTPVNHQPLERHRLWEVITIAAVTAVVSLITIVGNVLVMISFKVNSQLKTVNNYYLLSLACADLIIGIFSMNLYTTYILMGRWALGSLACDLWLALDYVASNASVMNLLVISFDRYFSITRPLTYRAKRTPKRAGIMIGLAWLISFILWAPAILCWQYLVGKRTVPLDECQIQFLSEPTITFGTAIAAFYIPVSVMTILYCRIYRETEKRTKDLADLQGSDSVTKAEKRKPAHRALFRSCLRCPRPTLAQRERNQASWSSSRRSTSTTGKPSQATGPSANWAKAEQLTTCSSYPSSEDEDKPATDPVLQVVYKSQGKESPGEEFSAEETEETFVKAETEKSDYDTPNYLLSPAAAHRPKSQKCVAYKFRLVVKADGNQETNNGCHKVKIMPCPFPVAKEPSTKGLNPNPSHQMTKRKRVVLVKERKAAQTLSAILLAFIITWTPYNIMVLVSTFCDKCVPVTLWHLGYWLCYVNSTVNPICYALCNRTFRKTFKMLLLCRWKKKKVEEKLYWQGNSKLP
Method: as §1, §2

T1 sequence (P50406 whole entry, species assumed): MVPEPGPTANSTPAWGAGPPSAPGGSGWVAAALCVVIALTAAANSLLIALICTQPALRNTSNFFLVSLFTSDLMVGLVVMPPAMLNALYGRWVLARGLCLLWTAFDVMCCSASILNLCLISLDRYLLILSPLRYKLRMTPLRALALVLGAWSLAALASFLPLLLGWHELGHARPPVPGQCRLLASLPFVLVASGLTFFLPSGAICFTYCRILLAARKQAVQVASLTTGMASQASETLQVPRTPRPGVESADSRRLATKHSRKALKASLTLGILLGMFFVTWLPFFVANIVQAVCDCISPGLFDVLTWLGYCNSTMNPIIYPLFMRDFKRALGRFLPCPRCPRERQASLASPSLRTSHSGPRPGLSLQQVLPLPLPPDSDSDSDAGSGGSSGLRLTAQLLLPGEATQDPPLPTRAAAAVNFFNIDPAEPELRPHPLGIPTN

IC50 (5-HT6; Inv. Agonist): 0.158 µM
EC50 (5-HT6; agonist): > 3.16 µM
EC50 (D1; agonist): > 3.16 µM
IC50 (D1; antagonist): > 3.16 µM
EC50 (D5; agonist): > 3.16 µM
IC50 (D5; antagonist): > 3.16 µM
IC50 (Histamine 1; Inv. Agonist): > 3.16 µM
EC50 (Histamine 1; agonist): > 3.16 µM
EC50 (Histamine 2; agonist): > 3.16 µM
IC50 (Histamine 2; antagonist): > 3.16 µM
EC50 (NK-1): > 3.16 µM
EC50 (alpha 2C; agonist): > 3.16 µM
IC50 (alpha 2C; antagonist): > 3.16 µM
EC50 (m2; agonist): > 3.16 µM
IC50 (m2; antagonist): > 3.16 µM
EC50 (m3; agonist): > 3.16 µM
IC50 (m3; antagonist): > 3.16 µM
EC50 (m5; agonist): > 3.16 µM
IC50 (m5; antagonist): > 3.16 µM
Compound: COc1ccc(CC(=O)N(Cc2ccc(C)cc2)C2CCN(C)CC2)cc1 [Example 50ELH27, 2-(4-Methoxyphenyl)-N-(4-methylbenzyl)-N-(1-methylpiperidin-4-yl)acetamide]
